In article PMC10058748, “Triterpenoids of Three Apple Cultivars—Biosynthesis, Antioxidative and Anti-Inflammatory Properties, and Fate during Processing” (Molecules, 2023):
Converted amounts (≈) assume the structure as drawn.

Assays:
5-lipoxygenase (5-LOX) = biological target: T1, 5-lipoxygenase (5-LOX) (Homo sapiens, UniProt P09917); experiment: 5-LOX inhibition (commercial kit, abcam ab284521); format: biochemical; conditions: expressed per dry mass; 1% DMSO
T1 construct: purchased abcam ab284521
T1 sequence (P09917 1-674): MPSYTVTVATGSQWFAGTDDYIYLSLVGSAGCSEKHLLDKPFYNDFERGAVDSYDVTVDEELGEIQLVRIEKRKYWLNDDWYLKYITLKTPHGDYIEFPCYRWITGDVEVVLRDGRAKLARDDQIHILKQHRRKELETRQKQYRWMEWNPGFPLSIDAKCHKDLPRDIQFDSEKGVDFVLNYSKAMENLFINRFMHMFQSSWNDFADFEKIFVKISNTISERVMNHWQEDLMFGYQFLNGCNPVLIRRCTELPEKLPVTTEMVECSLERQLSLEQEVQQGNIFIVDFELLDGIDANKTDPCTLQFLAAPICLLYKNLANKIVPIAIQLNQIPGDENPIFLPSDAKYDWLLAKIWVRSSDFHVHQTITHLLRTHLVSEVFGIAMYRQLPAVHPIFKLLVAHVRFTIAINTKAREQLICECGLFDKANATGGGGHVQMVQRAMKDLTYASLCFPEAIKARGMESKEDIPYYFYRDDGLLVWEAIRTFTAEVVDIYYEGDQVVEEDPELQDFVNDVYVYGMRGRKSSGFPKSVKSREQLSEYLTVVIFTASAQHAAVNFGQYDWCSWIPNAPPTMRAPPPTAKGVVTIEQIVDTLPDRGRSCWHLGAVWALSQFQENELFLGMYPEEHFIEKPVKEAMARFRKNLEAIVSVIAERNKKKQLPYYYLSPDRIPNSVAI
Experimental: The selected peel extracts as well as the standards of triterpenic compounds were analyzed for their antioxidative and anti-inflammatory properties. Due to their hydrophobic character, the samples were dissolved in dimethyl sulfoxide (DMSO). The content of DMSO in the reaction media in all the tests described below was 1% for all the tested samples as well as the controls.
The anti-inflammatory activity was evaluated using commercial kits for three enzymes of biological activity: cyclooxygenases 1 and 2 (COX-1 and COX-2) and 5-lipoxygenase (5-LOX), according to the instructions of the producers. Inhibition of the cyclooxygenases was measured using kits from Cayman Chemicals (Ann Arbor, MI, USA; items 701070 and 701080, respectively), while 5-LOX inhibition was measured using a kit from abcam (Cambridge, UK; item no. ab284521).

cyclooxygenase 2 (COX-2) = biological target: T2, cyclooxygenase 2 (COX-2) (Homo sapiens, UniProt P35354); experiment: COX-2 inhibition (commercial kit, Cayman Chemicals item 701080); format: biochemical; conditions: expressed per dry mass; 1% DMSO
T2 sequence (P35354 18-604): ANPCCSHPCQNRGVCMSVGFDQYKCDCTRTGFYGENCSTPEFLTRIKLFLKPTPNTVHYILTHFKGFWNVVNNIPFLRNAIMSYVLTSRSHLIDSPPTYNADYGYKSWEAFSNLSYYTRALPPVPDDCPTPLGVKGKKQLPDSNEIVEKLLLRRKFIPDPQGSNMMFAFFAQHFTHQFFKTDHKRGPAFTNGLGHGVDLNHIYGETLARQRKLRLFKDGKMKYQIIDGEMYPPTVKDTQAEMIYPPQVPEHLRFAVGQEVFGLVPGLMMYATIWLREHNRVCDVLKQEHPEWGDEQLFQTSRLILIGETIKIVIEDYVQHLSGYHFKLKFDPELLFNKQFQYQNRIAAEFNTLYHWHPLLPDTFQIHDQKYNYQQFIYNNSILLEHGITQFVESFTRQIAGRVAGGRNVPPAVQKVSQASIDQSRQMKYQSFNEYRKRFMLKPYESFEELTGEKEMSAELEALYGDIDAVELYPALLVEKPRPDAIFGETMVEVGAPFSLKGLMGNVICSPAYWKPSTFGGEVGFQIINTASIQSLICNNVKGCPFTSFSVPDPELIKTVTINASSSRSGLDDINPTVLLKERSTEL

cyclooxygenase 1 (COX-1) = biological target: T3, cyclooxygenase 1 (COX-1) (Homo sapiens, UniProt P23219); experiment: COX-1 inhibition (commercial kit, Cayman Chemicals item 701070); format: biochemical; conditions: expressed per dry mass; 1% DMSO
T3 construct: purchased Cayman Chemicals 701070
T3 sequence (P23219 24-599): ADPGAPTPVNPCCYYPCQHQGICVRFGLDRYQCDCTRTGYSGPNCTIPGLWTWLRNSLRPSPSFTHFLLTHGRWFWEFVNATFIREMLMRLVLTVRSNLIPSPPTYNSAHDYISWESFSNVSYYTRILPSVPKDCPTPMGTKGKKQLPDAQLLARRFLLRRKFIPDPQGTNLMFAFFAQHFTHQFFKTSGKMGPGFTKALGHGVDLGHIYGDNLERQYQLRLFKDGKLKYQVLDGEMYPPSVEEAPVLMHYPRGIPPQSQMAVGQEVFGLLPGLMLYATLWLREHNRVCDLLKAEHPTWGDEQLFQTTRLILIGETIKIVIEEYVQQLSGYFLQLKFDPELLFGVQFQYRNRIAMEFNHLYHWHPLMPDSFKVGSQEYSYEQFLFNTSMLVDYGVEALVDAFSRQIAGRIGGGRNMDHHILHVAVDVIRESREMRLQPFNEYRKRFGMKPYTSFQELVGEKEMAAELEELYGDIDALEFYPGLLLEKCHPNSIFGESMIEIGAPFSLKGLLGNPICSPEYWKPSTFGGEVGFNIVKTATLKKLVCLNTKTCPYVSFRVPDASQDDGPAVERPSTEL

[1] = DPPH radical scavenging activity; conditions: expressed per dry mass; 1% DMSO; 30 min at room temperature, 517 nm
Experimental: A method described by Yen and Chen was used to determine the activity against DPPH^• [64]. Briefly, 0.1 mL samples were mixed with 2 mL of DPPH^• solution (1 mM) and incubated at room temperature for 30 min. […] Trolox was chosen as a reference antioxidant.

[2] = heating; cited from earlier work
[3] = ABTS radical cation scavenging activity; conditions: expressed per dry mass; 1% DMSO; 6 min incubation, 734 nm
Experimental: The scavenging activity against ABTS^•+ was measured with a protocol described by Re et al. [63]. […] Then, 25 µL samples were mixed with 2.5 mL of ABTS^•+ solution and incubated for 6 min. […] Trolox was chosen as a reference antioxidant.

IC50 (5-lipoxygenase (5-LOX)) | IC50 (cyclooxygenase 2 (COX-2)) | IC50 (cyclooxygenase 1 (COX-1)) | IC50 DPPH^• scavenging [1] | IC50 ABTS^•+ scavenging [3] | SMILES | temperature above which degradative processes occur [2]
> 14100 µM | 1730 µM | 2960 µM | – | – | O=C(/C=C/c1ccc(O)c(O)c1)O[C@@H]1C[C@](O)(C(=O)O)C[C@@H](O)[C@H]1O [Chlorogenic Acid, chlorogenic acid] | –
> 11500 µM | 1480 µM | 2200 µM | 23 ± 3 µg/mL (≈ 52.7 µM) | 34 ± 4 µg/mL (≈ 77.9 µM) | O=C(CCc1ccc(O)cc1)c1c(O)cc(O)cc1O[C@@H]1O[C@H](CO)[C@@H](O)[C@H](O)[C@H]1O [Phloridzin, phloridzin] | –
1570 µM | 67.9 µM | 114 µM | – | – | C[C@H]1[C@H](C)CC[C@]2(C(=O)O)CC[C@]3(C)C(=CC[C@@H]4[C@@]5(C)CC[C@H](O)C(C)(C)[C@@H]5CC[C@]43C)[C@H]12 [Ursolic Acid, Ursolic acid] | –

More lines, now with the values behind:

SMILES | IC50 (5-lipoxygenase (5-LOX)) | IC50 (cyclooxygenase 2 (COX-2)) | IC50 (cyclooxygenase 1 (COX-1)) | IC50 DPPH^• scavenging [1] | IC50 ABTS^•+ scavenging [3] | temperature above which degradative processes occur [2]
CC1(C)CC[C@]2(C(=O)O)CC[C@]3(C)C(=CC[C@@H]4[C@@]5(C)CC[C@H](O)C(C)(C)[C@@H]5CC[C@]43C)[C@@H]2C1 [Oleanolic Acid, Oleanolic acid] | 1400 µM | – | – | 96 ± 5 µg/mL (≈ 210 µM) | 155 ± 7 µg/mL (≈ 339 µM) | above 200 °C
CC[C@H](CC[C@@H](C)[C@H]1CC[C@H]2[C@@H]3CC=C4C[C@@H](O)CC[C@]4(C)[C@H]3CC[C@]12C)C(C)C [β-Sitosterol, β-sitosterol] | 4200 µM | 921 µM | – | – | – | –
